Experimental data: PMC11489056, “Molecular mechanism of a triazole-containing inhibitor of Mycobacterium tuberculosis DNA gyrase” (iScience, 2024)
In brackets after ≈: the same amount, converted by molar mass. Read-outs that look alike come from different tables or passages of the source.

What was measured:
physchem [1] = assay type: physicochemical; conditions: pH 7.4, aqueous buffer, kinetic from dmso stock
Protocol: 10μL of a 10 mM solution in DMSO of the compound are diluted in 490 μL of PBS pH 7.4 in Matrix tube (in triplicate) or organic solvent (ACN, MeOH) in Matrix tube (in triplicate). The tubes are gently shaken 24h at room temperature. Then the tubes are centrifuged for 5 minutes at 4000 rpm and filtered over 0.45 μm filters (Millex-LH Millipore). 20 μL of each tube are diluted in 180 μL of MeOH. Analysis is performed thanks to a UPLC-MS/MS system (Waters) under SIM detection using the parameters optimized for each compound. HPLC analysis was performed using an Aquity C18 (50x2.1 mm, 1.8 μm); the gradient and the mobile phase (flow rate 600 μL/min^-1) used are determined in order to detect the compound of interest with satisfying retention time and peak shape. Acquisition and analysis of data were performed with Masslynx software. The solubility is determined by the ratio of mass signal area PBS/ organic solvent.

physchem [2] = assay type: physicochemical; conditions: pH 7.4
Protocol: 40 μL of a 10 mM solution in DMSO of the compound were diluted in 1.960 mL of a 1/1 octanol/PBS at pH 7.4 solution. The mixture was gently shaken 2h at room temperature. 20 μL of each solution was diluted in 480 μμL of MeOH and analyzed by LC-MS. Each compound is tested in triplicate. Analysis is performed thanks to a UPLC-MS/MS triple-quadrupole system (Waters) under SIM or MRM detection using the parameters optimized for each compound. HPLC analysis was performed using an Aquity C18 (50x2.1 mm, 1.8 μm); the gradient and the mobile phase (flow rate 600μL/min^-1) used are determined in order to detect the compound of interest with satisfying retention time and peak shape. Acquisition and analysis of data were performed with MS Workstation™ software (version 6.3.0 or higher). LogD was determined as the logarithm of the ratio of concentrations of product in octanol and PBS, determined by mass signals.

E. coli = assay: MIC, agar dilution method, ESKAPE strains; assay type: cell-based, Escherichia coli
S. aureus = assay: MIC, agar dilution method, ESKAPE strains; assay type: cell-based; conditions: Staphylococcus aureus
E. faecium = assay: MIC, agar dilution method, ESKAPE strains; assay type: cell-based; conditions: Enterococcus faecium; read-out: MIC E. faecium MDR(5)
A. baumannii = assay: MIC, agar dilution method, ESKAPE strains; assay type: cell-based; conditions: Acinetobacter baumannii
[3] = molecular target: wild-type E. coli DNA gyrase (Escherichia coli, UniProt P0AES4+P0AES6); assay: biochemical; conditions: read-out: IC50 E. coli WT
wild-type Mtb gyrase = molecular target: T1, wild-type Mtb gyrase (Mycobacterium tuberculosis, UniProt P9WG45+P9WG47); assay type: biochemical
T1 construct: His tag (TEV-cleavable) (N, cleaved yes); made in house; host or cells: E. coli Bli5 (DE3)

[4] = system: Mycobacterium tuberculosis H37Rv WT; assay: microbe, parasite or virus in culture; assay type: cell-based
[5] = system: Corynebacterium glutamicum (Cglu) WT; assay: MIC on Cglu WT; assay type: cell-based
K. pneumoniae = assay: MIC, agar dilution method, ESKAPE strains; assay type: cell-based; conditions: Klebsiella pneumoniae
Mtb GyrBA fusion protein [6] = molecular target: T2, Mtb GyrBA fusion protein (Mycobacterium tuberculosis, UniProt P9WG45+P9WG47); assay: DNA cleavage assay on pBR322; assay type: biochemical; conditions: pBR322 5 nM, Mtb gyrase 200 nM, 5 μM inhibitor
T2 construct: His6 (TEV-cleavable) (N, cleaved yes); made in house; host or cells: E. coli Bli5 (DE3)

Mtb GyrBA fusion protein [7] = molecular target: T2, Mtb GyrBA fusion protein; assay: DNA cleavage competition with ciprofloxacin; assay type: biochemical
Mtb GyrBA fusion protein [8] = molecular target: T2, Mtb GyrBA fusion protein; assay: Cleavage complex persistence (DNA cleavage-religation assay); assay type: biochemical
[9] = system: wild-type C. glutamicum ATCC1332 strain; assay: Bacterial cell morphology (cell length) by microscopy; assay type: cell-based, Corynebacterium glutamicum; conditions: 10x MIC, 24h, vs DMSO control
Mtb = conditions: Figure 1F; cited from earlier work
Mtb gyrase = conditions: Figure 1E, GlaxoSmithKline MGIs; cited from earlier work
[10] = Escherichia coli, E. coli 10385 NDM-1, read-out: MIC E. coli MDR(2)
[11] = Escherichia coli, read-out: MIC E. coli WT(1)
[12] = read-out: MIC A. baumannii MDR(6)
[13] = Escherichia coli, 2 h, read-out: MIC E. coli WT
[14] = Escherichia coli, ATCC25922, read-out: MIC
[15] = Escherichia coli, E. coli 9003, BLSE, read-out: MIC
[16] = A. baumannii 09010, VEB-1, read-out: MIC

SMILES: COc1ccc2nccc(-n3cc(CCNCc4ccc5c(c4)NC(=O)CO5)nn3)c2c1 [BDM71346 (9c)]
- solubility at 24 h (physchem [1]): 76.9 µg/mL (≈ 179 µM)
- logD (physchem [2]): 1.32
- MIC (E. coli; [10]): 0.5 µg/mL (≈ 1.16 µM)
- MIC (E. coli; [11]): 8 µg/mL (≈ 18.6 µM)
- MIC (S. aureus; read-out: MIC S. aureus MDR(4)): 32 µg/mL (≈ 74.3 µM)
- MIC (S. aureus; read-out: MIC S. aureus WT(3)): 16 µg/mL (≈ 37.2 µM)
- MIC (E. faecium): 1 µg/mL (≈ 2.32 µM)
- MIC (A. baumannii; [12]): 4 µg/mL (≈ 9.29 µM)
- IC50 [3]: 780 nM

SMILES: COc1ccc2nccc(-n3cc(CCNC(=O)c4ccc5c(c4)NC(=O)CS5)nn3)c2c1 [BDM71367 (11a)]
- solubility at 24 h (physchem [1]): < 0.17 µg/mL
- logD (physchem [2]): > 2.65
- MIC (E. coli; [10]): 0.25 µg/mL (≈ 0.543 µM)
- MIC (E. coli; [11]): 8 µg/mL (≈ 17.4 µM)
- MIC (S. aureus; read-out: MIC S. aureus MDR(4)): 4 µg/mL (≈ 8.69 µM)
- MIC (S. aureus; read-out: MIC S. aureus WT(3)): 4 µg/mL (≈ 8.69 µM)
- MIC (E. faecium): 8 µg/mL (≈ 17.4 µM)
- MIC (A. baumannii; [12]): 4 µg/mL (≈ 8.69 µM)

SMILES: COc1ccc2nccc(-n3cc(CCNCc4ccc5c(c4)NC(=O)CS5)nn3)c2c1 [BDM71368 (9a)]
- solubility at 24 h (physchem [1]): 84.7 µg/mL (≈ 190 µM)
- logD (physchem [2]): 1.81
- MIC (E. coli; [13]): 1 µg/mL (≈ 2.24 µM)
- MIC (E. coli; [10]): ≤ 0.06 µg/mL
- MIC (E. coli; [11]): 1 µg/mL (≈ 2.24 µM)
- MIC (S. aureus; read-out: MIC S. aureus MDR(4)): 1 µg/mL (≈ 2.24 µM)
- MIC (S. aureus; read-out: MIC S. aureus WT(3)): 1 µg/mL (≈ 2.24 µM)
- MIC (E. faecium): 0.5 µg/mL (≈ 1.12 µM)
- MIC (A. baumannii; [12]): 1 µg/mL (≈ 2.24 µM)
- IC50 [3]: 1170 nM
- IC50 lower than ciprofloxacin (wild-type Mtb gyrase): 10 fold
- IC50 lower than gepotidacin (wild-type Mtb gyrase): 6 fold
- MIC [4]: 1 µg/mL (≈ 2.24 µM)
- MIC [5]: 0.5 µg/mL (≈ 1.12 µM)

SMILES: COc1ccc2nccc(-n3cc(CCNCc4ccc5c(c4)OCCO5)nn3)c2c1 [BDM71369 (9b)]
- solubility at 24 h (physchem [1]): > 83.5 µg/mL
- logD (physchem [2]): 1.21
- MIC (E. coli; [10]): 1 µg/mL (≈ 2.4 µM)
- MIC (E. coli; [11]): 32 µg/mL (≈ 76.7 µM)
- MIC (S. aureus; read-out: MIC S. aureus MDR(4)): 1 µg/mL (≈ 2.4 µM)
- MIC (S. aureus; read-out: MIC S. aureus WT(3)): 1 µg/mL (≈ 2.4 µM)
- MIC (E. faecium): 0.25 µg/mL (≈ 0.599 µM)
- MIC (A. baumannii; [12]): 32 µg/mL (≈ 76.7 µM)
- IC50 [3]: 130 nM

SMILES: COc1ccc2nccc(-n3cc(CCNC(=O)c4ccc5c(c4)OCCO5)nn3)c2c1 [BDM71373 (11b)]
- solubility at 24 h (physchem [1]): 10.2 µg/mL (≈ 23.6 µM)
- logD (physchem [2]): 2.35
- MIC (E. coli; [10]): 32 µg/mL (≈ 74.2 µM)
- MIC (E. coli; [11]): ≥ 32 µg/mL
- MIC (S. aureus; read-out: MIC S. aureus MDR(4)): ≥ 32 µg/mL
- MIC (S. aureus; read-out: MIC S. aureus WT(3)): ≥ 32 µg/mL
- MIC (E. faecium): ≥ 32 µg/mL
- MIC (A. baumannii; [12]): 32 µg/mL (≈ 74.2 µM)

SMILES: COc1ccc2nccc(-n3cc(CCNCc4ccc5c(c4)NC(=O)CS5)nn3)c2n1 [BDM71403 (10a)]
- solubility at 24 h (physchem [1]): 44 µg/mL (≈ 98.3 µM)
- logD (physchem [2]): 1.92
- MIC (E. coli): 0.5 µg/mL (≈ 1.12 µM)
- MIC (E. coli; [13]): 1 µg/mL (≈ 2.23 µM)
- MIC (E. coli; [14]): 1 µg/mL (≈ 2.23 µM)
- MIC (E. coli; [15]): 1 µg/mL (≈ 2.23 µM)
- MIC (E. coli; Escherichia coli, E. coli 10269, NDM-1, read-out: MIC): 1 µg/mL (≈ 2.23 µM)
- MIC (E. coli; Escherichia coli, E. coli 10273, KPC-2, read-out: MIC): 1 µg/mL (≈ 2.23 µM)
- MIC (E. coli; Escherichia coli, E. coli 10385, NDM-1, read-out: MIC): < 0.06 µg/mL
- MIC (E. coli; [10]): ≤ 0.06 µg/mL
- MIC (E. coli; Escherichia coli, E. coli 10386, NDM-1, read-out: MIC): 1 µg/mL (≈ 2.23 µM)
- MIC (E. coli; Escherichia coli, read-out: MIC): 1 µg/mL (≈ 2.23 µM)
- MIC (E. coli; [11]): 1 µg/mL (≈ 2.23 µM)
- MIC (S. aureus; read-out: MIC S. aureus MDR(4)): 0.25 µg/mL (≈ 0.559 µM)
- MIC (S. aureus; read-out: MIC S. aureus WT(3)): 0.25 µg/mL (≈ 0.559 µM)
- MIC (E. faecium): ≤ 0.06 µg/mL
- MIC (A. baumannii; [16]): 1 µg/mL (≈ 2.23 µM)
- MIC (A. baumannii; A. baumannii 10275, VIM-4, read-out: MIC): < 0.06 µg/mL
- MIC (K. pneumoniae; K. pneumoniae 10270, VIM): 4 µg/mL (≈ 8.94 µM)
- MIC (K. pneumoniae; K. pneumoniae 10272, 0XA-48): 2 µg/mL (≈ 4.47 µM)
- MIC (K. pneumoniae; K. pneumoniae 10277, KPC-2): 2 µg/mL (≈ 4.47 µM)
- IC50 [3]: 80 nM
- IC50 lower than ciprofloxacin (wild-type Mtb gyrase): 12 fold
- IC50 lower than gepotidacin (wild-type Mtb gyrase): 7 fold
- MIC [4]: 0.5 µg/mL (≈ 1.12 µM)
- MIC [5]: 0.12 µg/mL (≈ 0.268 µM)
- minor population of linearized DNA (Mtb GyrBA fusion protein [6]): 10–20%
- concentration at which nicked DNA is diminished by 50% (Mtb GyrBA fusion protein [7]): 10 µM
- lower concentration for drop of nicked DNA to 50% in comparison with gepotidacin (Mtb GyrBA fusion protein [7]): 2.5 fold
- difference in complex half-life versus gepotidacin (Mtb GyrBA fusion protein [8]): 10 fold
- Cohen's d, cell length compared to control [9]: 1.87
- effect size class, cell length compared to control [9]: ∗∗∗ (very large (∗∗∗), 1.20 < d < 2.0)

SMILES: COc1ccc2nccc(-n3cc(CCNCc4ccc5c(c4)OCCO5)nn3)c2n1 [BDM71404 (10b)]
- solubility at 24 h (physchem [1]): 66.9 µg/mL (≈ 160 µM)
- logD (physchem [2]): 1.53
- MIC (E. coli; [10]): 0.25 µg/mL (≈ 0.597 µM)
- MIC (E. coli; [11]): 8 µg/mL (≈ 19.1 µM)
- MIC (S. aureus; read-out: MIC S. aureus MDR(4)): 0.25 µg/mL (≈ 0.597 µM)
- MIC (S. aureus; read-out: MIC S. aureus WT(3)): 0.25 µg/mL (≈ 0.597 µM)
- MIC (E. faecium): ≤ 0.06 µg/mL
- IC50 [3]: 380 nM

SMILES: O=C(O)c1cn(C2CC2)c2cc(N3CCNCC3)c(F)cc2c1=O [Ciprofloxacin, ciprofloxacin, reference compound]
- MIC (E. coli; [13]): ≤ 0.06 µg/mL
- MIC (E. coli; [14]): < 0.06 µg/mL
- MIC (E. coli; [15]): 16 µg/mL (≈ 48.3 µM)
- MIC (E. coli; [11]): ≤ 0.06 µg/mL
- MIC (S. aureus; read-out: MIC S. aureus MDR(4)): ≥ 128 µg/mL
- MIC (E. faecium): ≥ 128 µg/mL
- MIC (A. baumannii; [16]): > 32 µg/mL
- MIC [4]: 1 µg/mL (≈ 3.02 µM)
- MIC [5]: 0.25 µg/mL (≈ 0.754 µM)
- Cohen's d, cell length compared to control [9]: 2.08

SMILES: COc1cnc2ccc(=O)n(CCN3CCC(Nc4cnc(CO)c(Cl)c4)CC3)c2c1 [EC/11716]
- MIC (Mtb): 0.17 µg/mL (≈ 0.383 µM)

SMILES: COc1cnc2ccc(=O)n(CCN3CCC(Nc4ccc(Cl)c(Cl)c4)CC3)c2c1 [GSK000]
- IC50 (Mtb gyrase): 5400 nM

SMILES: O=c1ccc2ncc(=O)n3c2n1C[C@H]3CN1CCC(NCc2cc3c(cn2)OCCC3)CC1 [Gepotidacin, gepotidacin, reference compound]
- MIC [4]: 4 µg/mL (≈ 8.92 µM)
- MIC [5]: 0.2 µg/mL (≈ 0.446 µM)
- minor population of linearized DNA (Mtb GyrBA fusion protein [6]): 10–20%
- Cohen's d, cell length compared to control [9]: 2.36
- effect size class, cell length compared to control [9]: ∗∗∗∗ (huge (∗∗∗∗), d > 2.0)
